Data: patent US6376430B1, “Enhancement of seed yield of soybeans by a substituted benzoyl urea” (Uniroyal Chemical Company, Inc., priority 1997, dated 2002)

Legend:
determinate soybeans = test: Field applications on determinate soybeans (29 site data base), seed yield; format: in vivo, soybean; conditions: for determinate soybean yields: Diflubenzuron 0.035 kg/ha, BENLATE 0.56 to 0.84 kg/ha, applied from R2 through R5 growth stages, untreated control 2190 kg/ha; for yield increase over the untreated control: one or two field applications of Diflubenzuron at 0.034 kg ai/ha, 29 sites, determinate soybeans
Excerpt: In this invention, Diflubenzuron is typically sprayed during the period from R2 through R5 for controlling foliar feeding insects. In the States of Mississippi, Florida, Tennessee, Illinois, Arkansas, Louisiana, and Texas results have been compiled where one or two field applications of Diflubenzuron at 0.034 kg ai/ha (0.031 lb ai/acre) were applied to control insects on the determinate soybeans planted. A fungicide, Benomyl, methyl-1-(butylcarbamoyl)-2-benzamidazolecarbamate [CAS 17804-35-2], available as BENLATE™ from DuPont deNemour, Wilmington, Del., was also applied alone or in combination with Diflubenzuron for fungal pathogen control.

indeterminate soybeans = test: Field applications on northern indeterminate soybean varieties (25 sites), seed yield, pod counts, seed size; format: in vivo
Excerpt: Diflubenzuron alone gave a 376 kg/ha (5.6 bu/acre) increase over the untreated control; the addition of Benomyl (methyl-1-(butylcarbamoyl)-2-benzamidazolecarbamate) only conferred another 0.5 bushel increase. There were no reported foliar feeding insect infestations of significance in any of the trials.
This is a similar % increase to the increased seed yields found in Table 3. […] Thus Diflubenzuron may be more consistent than TIBA in generating soybean seed yield increases since Diflubenzuron is not visually altering the carbon fixation pool of the plant.

soybean = conditions: cited from earlier work

Row | Structure (SMILES) | determinate soybean yields (determinate soybeans) [kg/ha] | yield increase over the untreated control (determinate soybeans) [bushels/acre] | visual alteration of the soybean plant canopy (indeterminate soybeans; any research trial) | seed size variation across varieties (indeterminate soybeans; no correlation to application time of Diflubenzuron) [%] | pod counts from plants, higher in relation to the untreated control (indeterminate soybeans; preliminary results, indeterminate soybean trials) | total seed number per plant (soybean; literature (Bauer et al., 1969; Burton and Curley, 1966; Hicks et al., 1967)) | seed yield (soybean; literature, smaller seeds were formed)
1 | O=C(NC(=O)c1c(F)cccc1F)Nc1ccc(Cl)cc1 [Diflubenzuron, N-(2,6-difluorobenzoyl)-N′-(4-chlorophenyl)urea] | 2378 | 2.8 | has not been noted | ~2 | approximately 16% |  | 
2 | CCCCNC(=O)n1c(NC(=O)OC)nc2ccccc21 [Benomyl, methyl-1-(butylcarbamoyl)-2-benzamidazolecarbamate] | 2439 | 3.7 |  |  |  |  | 
3 | O=C(O)c1cc(I)cc(I)c1I [TIBA, 2,3,5-triiodobenzoic acid] |  |  |  |  |  | increase | no corresponding increase
